The test system of assay [1] is C57BL/6 w.t. BMDCs. The assay can be described thus: Cytokine induction in BMDCs of w.t. C57BL/6 mice. Particulars: 24 h, 1 μg/ml TLR4 agonists, 2 μM R848. It counts as cell-based, mouse. From the text:
(§1) Femur/tibia bones from w.t. C57BL/6, TLR4/MD2 KO, and hTLR4/MD2 KIKO mice were soaked in 10% FBS-RPMI. Muscle and fat tissue was stripped off from the bones with a scalpel, then, bone pairs from individual mice were transferred to 100 mm petri dishes. Femur and tibia bones were separated and the ends cut with dissecting scissors so that bone marrow cells (BMCs) could be removed by flushing the interior of the bones using a 21 G needle and warm 10% FBS-RPMI. BMCs were passed through a 70 μm strainer, followed by RBC lysis. BMCs were cultured in a 70 mm flask for 24 h in the presence of 10 ng/ml (200 unit/ml) of mGM-CSF. Non-adherent cells were collected, washed, and seeded in a 175 cm flask in the presence of 20 ng/ml of mGM-CSF. Every two days, the cells were fed with fresh media and 20 ng/ml mGM-CSF. On day 9, cells were harvested, washed, and stained for CD11c/CD11b expression to determine BMDC density. BMDCs were cultured at 50,000 cells/well for 24 h with 1 μg/ml MPL, LPS, Ugi compounds, or 2 μM R848 (InVivogen).
(§2) Fig 10 Ugi compounds activate mouse BMDCs that express human TLR4/MD2. Bone marrow cells were isolated from femur/tibia bones of w.t. […] BMDCs were harvested at day 9, washed, counted, and stimulated in vitro for 24 h with 1 μg/ml TLR4 agonists and 2 μM R848. SNs were analyzed via mouse MILLIPLEX kits. Data are expressed as the means of 2 mice and are representative of 2 studies.

Assay [2] concerns TLR4/MD2 KO BMDCs. The experiment in a line: Cytokine induction in BMDCs of mTLR4/MD2 knockout mice. It is filed as cell-based, mouse. Particulars: 24 h, 1 μg/ml TLR4 agonists, 2 μM R848.
Description: as §1, §2

Take `CCOCc1nc2c(N)nc3ccccc3c2n1CC(C)(C)O` [R848]: in assay [1], the “cytokine response of C57BL/6 w.t. BMDCs” value is “strong response”. Besides, the “cytokine response of mTLR4/MD2 knockout BMDCs” value in assay [2] is “retained”.

(Values after PMC5063506, “A Novel Class of Small Molecule Agonists with Preference for Human over Mouse TLR4 Activation” (PLoS ONE, 2016).)
